The source made the active and inactive calls. No cut-off for these calls is given here.
Legend:
[1] = Toxicity in Kunming mouse assessed as increase in body weight at 667 mg/kg, po measured for 15 days (reference value: 12.38%); format: organism-based; conditions: in vivo, 360 h, time 15 day
[2] = test system: Mus musculus; assay: Anti-inflammatory activity in po dosed C57BL/6 mouse model of DSS-induced acute ulcerative colitis assessed as decrease in TNF-alpha expression in serum administered once a day for 7 days by ELISA; format: functional, organism-based; conditions: dose 100-300 mg/kg, time 7.0 day
[3] = test system: DLD-1; assay: Upregulation of JNK protein expression in TNF-alpha stimulated human DLD-1 cells at 50 uM preincubated for 4 hrs and followed TNF-alpha stimulation and measured after 10 mins by Western blot analysis; format: functional, cell-based; conditions: time 250.0 min
[4] = test system: HCT-116; assay: Effect on IKK protein expression in TNF-alpha stimulated human HCT-116 cells at 12.5 to 50 uM preincubated for 4 hrs and followed TNF-alpha stimulation and measured after 10 mins by Western blot analysis; format: functional, cell-based; conditions: dose 12.5-50 µM, time 250.0 min
[5] = Selectivity index, ratio of CC50 for cytotoxicity against TNF-alpha induced HEK293T cells to IC50 for inhibition of TNF-alpha induced NF-kappaB activation in HEK293T cells; format: toxicity, cell-based; conditions: human, HEK293T cells induced with TNF-alpha; read-out: Ratio IC50
[6] = test system: Mus musculus; assay: Anti-inflammatory activity in C57BL/6 mouse model of DSS-induced acute ulcerative colitis assessed as reduction in histopathological changes of granulocyte infiltration at 100 to 300 mg/kg, po administered once a day for 7 days by H and E staining based analysis; format: functional, organism-based; conditions: dose 100-300 mg/kg, time 7.0 day
[7] = test system: HCT-116; assay: Activation of MAPK signaling pathway in TNF-alpha stimulated human HCT-116 cells assessed as increase in phospho-ERK protein expression at 50 uM preincubated for 4 hrs and followed TNF-alpha stimulation and measured after 10 mins by Western blot analysis; format: cell-based; conditions: filed as activator, time 250.0 min
[8] = test system: HCT-116; assay: Inhibition of TNF-alpha induced NF-kB activation in human HCT-116 cells assessed as decrease in phosphorylated IkappaBalpha protein expression preincubated for 4 hrs and followed TNF-alpha stimulation and measured after 10 mins by Western blot analysis; format: cell-based; conditions: dose 12.5-50 µM, time 250.0 min
[9] = Toxicity in Kunming mouse assessed as increase in body weight at 1111 mg/kg, po measured for 15 days (reference value: 12.38%); format: organism-based; conditions: in vivo, 360 h, time 15 day
[10] = Toxicity in Kunming mouse assessed as increase in body weight at 1852 mg/kg, po measured for 15 days (reference value: 12.38%); format: organism-based; conditions: in vivo, 360 h, time 15 day
[11] = test system: Mus musculus; assay: Anti-inflammatory activity in C57BL/6 mouse model of DSS-induced acute ulcerative colitis assessed as reduction in p65 expression in colon at 100 to 300 mg/kg, po administered once a day for 7 days by immunohistochemical analysis; format: functional, organism-based; conditions: dose 100-300 mg/kg, time 7.0 day
[12] = Toxicity in C57BL/6 mouse model of DSS-induced acute ulcerative colitis assessed as effect on liver tissue at 100 to 300 mg/kg, po administered once a day for 7 days by H and E staining based analysis; format: organism-based; conditions: in vivo, 168 h, dose 100-300 mg/kg, time 7 day
[13] = test system: RAW264.7; assay: Antiinflammatory activity in mouse RAW264.7 cells assessed as inhibition in LPS/IFNgamma-induced NO production preincubated for 2 hrs followed by LPS/IFNgamma stimulation and measured after 24 hrs by Griess reagent based assay; format: functional, cell-based
[14] = Toxicity in Kunming mouse assessed as number of mouse survived at 1111 mg/kg, po measured for 15 days; format: organism-based; conditions: in vivo, 360 h, time 15 day
[15] = test system: HCT-116; assay: Effect on p38 protein expression in TNF-alpha stimulated human HCT-116 cells at 6.25 to 50 uM preincubated for 4 hrs and followed TNF-alpha stimulation and measured after 10 mins by Western blot analysis; format: functional, cell-based; conditions: dose 6.25-50 µM, time 250.0 min
[16] = Toxicity in Kunming mouse assessed as number of mouse survived at 400 mg/kg, po measured for 15 days; format: organism-based; conditions: in vivo, 360 h, time 15 day
[17] = test system: Mus musculus; assay: Anti-inflammatory activity in po dosed C57BL/6 mouse model of DSS-induced acute ulcerative colitis assessed as reduction in IFN-gamma mRNA expression in colon administered once a day for 7 days by RT-PCR analysis; format: functional, organism-based; conditions: dose 100-300 mg/kg, time 7.0 day
[18] = test system: Mus musculus; assay: Anti-inflammatory activity in C57BL/6 mouse model of DSS-induced acute ulcerative colitis assessed as reduction in hyperemia at 100 to 300 mg/kg, po administered once a day for 7 days by H and E staining based analysis; format: functional, organism-based; conditions: dose 100-300 mg/kg, time 7.0 day
[19] = test system: DLD-1; assay: Effect on IKK protein expression in TNF-alpha stimulated human DLD-1 cells at 12.5 to 50 uM preincubated for 4 hrs and followed TNF-alpha stimulation and measured after 10 mins by Western blot analysis; format: functional, cell-based; conditions: dose 12.5-50 µM, time 250.0 min
[20] = test system: DLD-1; assay: Inhibition of TNF-alpha induced NF-kB activation in human DLD-1 cells assessed as decrease in phosphorylated p65 protein expression preincubated for 4 hrs and followed TNF-alpha stimulation and measured after 10 mins by Western blot analysis; format: cell-based; conditions: dose 12.5-50 µM, time 250.0 min
[21] = test system: Mus musculus; assay: Anti-inflammatory activity in po dosed C57BL/6 mouse model of DSS-induced acute ulcerative colitis assessed as reduction in IL-6 mRNA expression in colon administered once a day for 7 days by RT-PCR analysis; format: functional, organism-based; conditions: dose 100-300 mg/kg, time 7.0 day
[22] = test system: HCT-116; assay: Upregulation of ERK protein expression in TNF-alpha stimulated human HCT-116 cells at 50 uM preincubated for 4 hrs and followed TNF-alpha stimulation and measured after 10 mins by Western blot analysis; format: functional, cell-based; conditions: time 250.0 min
[23] = test system: DLD-1; assay: Effect on NF-kappaB p65 protein expression in TNF-alpha stimulated human DLD-1 cells at 12.5 to 50 uM preincubated for 4 hrs and followed TNF-alpha stimulation and measured after 10 mins by Western blot analysis; format: functional, cell-based; conditions: dose 12.5-50 µM, time 250.0 min
[24] = test system: Mus musculus; assay: Anti-inflammatory activity in po dosed C57BL/6 mouse model of DSS-induced acute ulcerative colitis assessed as reduction in TNFalpha mRNA expression in colon administered once a day for 7 days by RT-PCR analysis; format: functional, organism-based; conditions: dose 100-300 mg/kg, time 7.0 day
[25] = Toxicity in Kunming mouse assessed as number of mouse survived at 667 mg/kg, po measured for 15 days; format: organism-based; conditions: in vivo, 360 h, time 15 day
[26] = test system: HCT-116; assay: Effect on NF-kappaB p65 protein expression in TNF-alpha stimulated human HCT-116 cells at 12.5 to 50 uM preincubated for 4 hrs and followed TNF-alpha stimulation and measured after 10 mins by Western blot analysis; format: functional, cell-based; conditions: dose 12.5-50 µM, time 250.0 min
[27] = test system: DLD-1; assay: Inhibition of TNF-alpha induced NF-kB activation in human DLD-1 cells assessed as decrease in phosphorylated IKK protein expression preincubated for 4 hrs and followed TNF-alpha stimulation and measured after 10 mins by Western blot analysis; format: cell-based; conditions: dose 12.5-50 µM, time 250.0 min
[28] = test system: DLD-1; assay: Upregulation of ERK protein expression in TNF-alpha stimulated human DLD-1 cells at 50 uM preincubated for 4 hrs and followed TNF-alpha stimulation and measured after 10 mins by Western blot analysis; format: functional, cell-based; conditions: time 250.0 min
[29] = test system: Mus musculus; assay: Anti-inflammatory activity in C57BL/6 mouse model of DSS-induced acute ulcerative colitis assessed as increase in colon length at 100 to 300 mg/kg, po administered once a day for 7 days; format: functional, organism-based; conditions: dose 100-300 mg/kg, time 7.0 day
[30] = Cytotoxicity against human DLD-1 cells assessed as inhibition in cell proliferation; format: toxicity, cell-based
[31] = test system: Mus musculus; assay: Anti-inflammatory activity in C57BL/6 mouse model of DSS-induced acute ulcerative colitis assessed as increase in IL-10 mRNA expression in colon at 100 to 300 mg/kg, po administered once a day for 7 days by RT-PCR analysis; format: functional, organism-based; conditions: dose 100-300 mg/kg, time 7.0 day

- IC50 [13]: 2.66 µM
SMILES: COC(=O)C1=C(C(=O)OC)C2OC1CC2C#Cc1ccc(C)cc1 (stereo unspecified)
- Activity [1]: 19.18%
- Activity [2]: Dose-Dependent Effect
- Activity [3]: Active
- Activity [4]: inactive
- selectivity ratio [5]: 5.85
- Activity [6]: Active
- Activity [7]: Active
- inhibition [8]: Dose-Dependent Effect
- Activity [9]: 6.01%
- Activity [10]: 15.38%
- Activity [11]: Active
- Activity [12]: Non-Toxic
- Activity [14]: 0
- Activity [15]: inactive
- Activity [16]: 0
- Activity [17]: Dose-Dependent Effect
- Activity [18]: Active
- Activity [19]: inactive
- inhibition [20]: Dose-Dependent Effect
- Activity [21]: Dose-Dependent Effect
- Activity [22]: Active
- Activity [23]: inactive
- Activity [24]: Dose-Dependent Effect
- Activity [25]: 0
- Activity [26]: inactive
- inhibition [27]: Dose-Dependent Effect
- Activity [28]: Active
- Activity [29]: Active
- IC50 [30]: 8.24 µM
- Activity [31]: Active
